Values of other authors in patent US20060177524A1, “Ocular irrigating solution” (University of Bristol, priority 1998, published 2006).

Columns and labels:
[1] = tested on: endothelial Na^+K^+ ATPase; settings: Geroski et al 1982-83, human and rabbit corneas
[2] = at 25° C.

Compound | Toxicity to endothelial Na^+K^+ ATPase [1] | pKa [2]
O=S(=O)(O)CCN1CCN(CCO)CC1 [HEPES, N-2-[hydroxyethyl]piperazine-N′-[2-ethanesulfonic acid]] | toxic | 
O=S(=O)(O)CCCN1CCN(CCO)CC1 [EPPS, N-[2-hydroxyethyl]-piperazine-N′-[3-propanesulfonic acid]] |  | 8.0
